Target: Transient receptor potential cation channel subfamily V member 1 (Homo sapiens, UniProt Q8NER1)
Assay: Activation Assay: The cDNA for human TRPV1 (hTRPV1) was isolated by reverse transcriptase-polymerase chain reaction (RT-PCR) from human small intestine poly A+ RNA supplied by Clontech (Palo Alto, Calif.) using primers designed surrounding the initiation and termination codons identical to the published sequences (Hayes et al. Pain 2000, 88, 205-215). The resulting cDNA PCR products were subcloned into pCIneo mammalian expression vector (Promega) and fully sequenced using fluorescent dye-terminator reagents (Prism, PerkinElmer Applied Biosystems Division) and a PerkinElmer Applied Biosystems Model 373 DNA sequencer or Model 310 genetic analyzer. Expression plasmids encoding the hTRPV1 cDNA were transfected into HEK293 cells using Lipofectamine. Forty-eight hours after transfection, the neomycin-resistant cells were selected with growth medium containing 800 ug/mL Geneticin (Life Technologies, formerly Gibco BRL). Surviving individual colonies were isolated and screened for TRPV1 activity.
Type: cell-based

Chain of Transient receptor potential cation channel subfamily V member 1 (Q8NER1 whole entry): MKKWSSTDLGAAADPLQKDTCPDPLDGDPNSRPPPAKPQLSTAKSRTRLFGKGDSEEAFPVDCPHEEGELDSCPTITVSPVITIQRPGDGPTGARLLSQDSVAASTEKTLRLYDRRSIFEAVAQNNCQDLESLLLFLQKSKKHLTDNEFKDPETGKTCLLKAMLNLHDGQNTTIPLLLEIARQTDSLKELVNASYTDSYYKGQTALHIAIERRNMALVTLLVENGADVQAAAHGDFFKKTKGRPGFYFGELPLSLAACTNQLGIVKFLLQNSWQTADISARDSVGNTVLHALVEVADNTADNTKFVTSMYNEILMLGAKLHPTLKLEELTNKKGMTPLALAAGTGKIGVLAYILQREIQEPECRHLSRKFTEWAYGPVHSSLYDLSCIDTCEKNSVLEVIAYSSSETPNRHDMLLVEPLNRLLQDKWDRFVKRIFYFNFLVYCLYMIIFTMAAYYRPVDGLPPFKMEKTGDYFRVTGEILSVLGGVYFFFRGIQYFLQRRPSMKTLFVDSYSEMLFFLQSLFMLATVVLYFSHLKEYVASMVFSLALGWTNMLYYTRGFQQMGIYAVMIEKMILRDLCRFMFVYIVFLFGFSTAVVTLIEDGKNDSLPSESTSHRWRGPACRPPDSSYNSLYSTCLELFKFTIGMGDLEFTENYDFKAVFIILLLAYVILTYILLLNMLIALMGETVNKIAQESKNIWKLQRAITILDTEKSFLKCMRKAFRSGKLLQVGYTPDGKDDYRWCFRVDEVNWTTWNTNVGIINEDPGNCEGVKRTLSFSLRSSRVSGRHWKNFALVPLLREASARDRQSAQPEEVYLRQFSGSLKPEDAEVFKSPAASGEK

CN1C(=O)NCc2c(NC(=O)N[C@@H]3CC(C)(C)Oc4cc(Cl)ccc43)cccc21
IC50: 42 nM

CN1C(=O)NCc2c(NC(=O)N[C@@H]3CC(C)(C)Oc4ccccc43)cccc21
IC50: 37 nM

CCC1(CC)C[C@@H](NC(=O)Nc2cccc3c2CNC(=O)N3C)c2ccc(F)cc2O1
IC50: 24 nM

CN1C(=O)NCc2c(NC(=O)N[C@@H]3CC(CF)(CF)Oc4c3ccc(Cl)c4F)cccc21
IC50: 25 nM

CN1C(=O)NCc2c(NC(=O)N[C@@H]3CC(C)(C)c4ccccc43)cccc21
IC50: 29 nM

Cn1c(=O)ccc2c(NC(=O)N[C@@H]3CC(C)(C)Oc4cc(F)ccc43)cccc21
IC50: 10 nM

O=C1CCc2ccc(NC(=O)N[C@@H]3CC(CF)(CF)Oc4cc(Cl)ccc43)cc2N1
IC50: 35 nM

CN1Cc2ccc(NC(=O)N[C@@H]3CC(C)(C)Oc4c(F)cccc43)cc2NC1=O
IC50: 820 nM

CN1C(=O)CCc2ccc(NC(=O)N[C@@H]3CCOc4c3cccc4C(F)(F)F)cc21
IC50: 94 nM
